Measured values: ChEMBL document CHEMBL1123714, “Potential antitumor agents. 48. 3'-Dimethylamino derivatives of amsacrine: redox chemistry and in vivo solid tumor activity” (J Med Chem, 1987)

Experiment: physchem
Settings: 20% DMF

CNc1cc(NS(C)(=O)=O)ccc1Nc1c2ccccc2nc2ccccc12
pKa: 7.47

CN(C)c1cc(NS(C)(=O)=O)ccc1Nc1c2ccccc2nc2ccccc12
pKa: 7.25
